Assay: gradient 5% acetonitrile 3 min, to 50% in 2 min, to 85% in 15 min, held 3 min, 100 µL/min
Settings: column: Zorbax Extend-C18 2.1 x 50 mm; eluents: water / acetonitrile, 0.1% formic acid
In short: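 The mobile phases were water and acetonitrile, each with 0.1% formic acid, pumped at 100 μL/min through a Zorbax Extend-C18 column (2.1 × 50 mm, 1.8 μm). Pure standards were injected as mixtures of ~100 molecules and detected by a quadrupole time-of-flight mass spectrometer in positive and negative ionization mode. Retention time came from computationally picked adduct peaks, each inspected by hand.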

| Compound | RP-LC retention time [s] |
| --- | --- |
| COc1ccc(-c2cn3c(CC(=O)NCc4ccc(C)o4)csc3n2)cc1OC | 686 |
| COC(=O)c1ccsc1NC(=O)CCS(=O)(=O)c1ccccc1 | 788 |
| COc1ccc(OC)c(NC(=O)Cn2c(-c3ccc(Cl)cc3)nc(C)cc2=O)c1 | 1220 |
| COc1ccc(C(=O)COC(=O)c2cccs2)cc1 | 846 |
| COc1ccc(CCc2nc3nccc(-c4ccc(OC)c(OC)c4)n3n2)cc1OC | 781 |
| O=C1CC(c2noc(-c3ccccc3F)n2)CN1c1ccc(F)cc1 (configuration not stated) | 916 |
| Cc1ccc(CNC2=NCCNC23CCN(S(=O)(=O)c2ccccc2C)CC3)cc1 | 738 |
| CC(O)(c1ccccc1)C(c1ccccc1)C1CCCCN1 (configuration not stated) | 747 |
| COC(=O)c1cc(OCC(=O)Nc2ccccc2Cl)c2cc(OC)ccc2n1 | 915 |
| CC(=O)Oc1cc(C(C)C)c(OCCN(C)C)cc1C | 708 |
| CCN1C(=O)c2cc(S(=O)(=O)Nc3cccc(C)c3C)ccc2Oc2cccnc21 | 1030 |
| CS(=O)(=O)c1ccccc1C(=O)Nc1nc(-c2cc(Cl)sc2Cl)cs1 | 1030 |
| Cc1ccc(S(=O)(=O)N2CCC3(CC2)NCCN=C3NCc2ccccc2F)cc1C | 750 |
| COc1ccc(NC(=O)C(C)C2CCN(C(=O)Nc3ccc(F)cc3)CC2)cc1 (configuration not stated) | 799 |
| COc1ccc(-c2cc3c(=O)n(Cc4nc(-c5ccccc5)oc4C)ccn3n2)cc1 | 936 |
| COC(=O)C1=C(C)N(C2CCCCC2)C(=O)C1(NC(=O)c1ccccc1OC)C(F)(F)F (configuration not stated) | 1090 |
| Cc1ccccc1Nc1c(-c2cccc(Br)c2)nc2c(C)cccn12 | 849 |
| CC(NC(=O)CCCN1C(=O)CCn2nc(-c3cn(C)c4ccccc34)cc21)c1ccccc1 (configuration not stated) | 791 |
| CCOC(=O)c1c(NCc2ccc(C)cc2)c2ccc(Cl)cc2[nH]c1=O | 922 |
| COc1ccc2oc(-c3noc(CNC(C)=O)n3)c(C)c2c1 | 750 |
| COc1ccc(Cl)cc1S(=O)(=O)NCCc1c[nH]c2ncccc12 | 654 |
| CCN1C(=O)c2cccnc2Sc2cc(NC(=O)c3ccc(F)cc3Cl)ccc21 | 852 |

| Compound | RP-LC retention time [s] |
| --- | --- |
| COc1cc2c(cc1CNC(=O)Cn1cc(C(C)=O)c3ccccc31)OCCCO2 | 771 |
| CCn1cc(C(=O)NCc2ccc(SC)cc2)c(=O)c2ccc(C)nc21 | 997 |
| O=C(CN1C(=O)CN(C(=O)NCc2ccccc2)c2ccccc21)NC1CCCc2ccccc21 (configuration not stated) | 892 |
| COCCCNC(=O)c1nnc(-c2ccc(S(=O)(=O)N(C)C)cc2)o1 | 717 |
| COc1ncc(C(=O)Nc2cccc(F)c2)c(C)n1 | 757 |
| c1ccc(C2CNCc3ccccc32)cc1 (configuration not stated) | 698 |
| O=C(CSc1nnnn1-c1ccccc1)c1ccc(Cl)c(Cl)c1 | 1060 |
| c1cc(-c2nc(-c3ccc4c(c3)nnn4CCN3CCCCC3)no2)ccn1 | 599 |
| Cc1noc(C)c1CC(=O)NCC12CCC=C1N(C)C(=O)CC2 (configuration not stated) | 638 |
| Cc1[nH]c(C(=O)Nc2ccccc2F)c(C)c1S(=O)(=O)N1CCCCC1 | 933 |
| COc1cc(OC)c(NC(=O)Nc2c(-c3ccc(C)cc3)nc3ccccn23)cc1Cl | 721 |
| CCNC(=O)N1CC(C(=O)N(C)C)C2(CCOCC2)C1 (configuration not stated) | 520 |
| COC(=O)c1ccccc1NC(=O)CSc1nccc(N2CCN(c3cccc(OC)c3)CC2)n1 | 695 |
| CC(=O)Nc1ccc(CCc2nc3ccc(C(=O)NCc4ccc(C)o4)cc3[nH]2)cc1 | 606 |
| Cc1ccc(NC(=O)c2cccn2Cc2noc(C)n2)c(Br)c1 | 942 |
| O=C(NCCc1c[nH]c2ccc(F)cc12)c1ccc(F)cc1 | 831 |
| CCCNC(=O)CCc1nc2ccccc2n(CC(=O)Nc2ccc(OC)c(OC)c2)c1=O | 1110 |
| O=C(Cc1csc(Nc2cccc(C(F)(F)F)c2)n1)NCc1cccs1 | 886 |
| Fc1ccc(-c2ccc(CNCC3CCNCC3)o2)cc1Cl | 582 |
| CCOCCCNC(=O)Cc1c(C)n(C)c2nc(-c3ccccc3)nn2c1=O | 649 |
| CC(=O)Nc1ccc(NC(=O)C2CCN(S(=O)(=O)c3ccc4c(c3)CCCC(=O)N4)CC2)cc1 | 644 |

Other lines, results leading:

| RP-LC retention time [s] | Compound |
| --- | --- |
| 587 | Cc1nn(CC(=O)NCCCN2CCCC2)c(=O)c2cc(-c3ccccc3)nn12 |
| 974 | Cc1ccc(C)c(Cn2nc3c(S(=O)(=O)N4CCCCC4)cccn3c2=O)c1 |
| 597 | CN(C)C(=O)c1ccc2oc(CN3CCN(C(=O)NC(C)(C)C)CC3)nc2c1 |
| 816 | CC1(C(=O)NCc2ccccc2)Cn2cnc(C(=O)NCc3ccccc3Cl)c2C(=O)N1C1CC1 (configuration not stated) |
| 589 | O=C(c1ccc2c(c1)CCN2C(=O)C1CCC1)N1CCCC1 |
| 599 | CCc1noc2nc(CCC(=O)NCCN3CCN(CC)CC3)nc(N3CCCCC3)c12 |
| 643 | COc1cc(NC(=O)Cn2nc3nc(N4CCCC4)ccn3c2=O)cc(OC)c1 |
| 727 | CCCc1nnc(NC(=O)C2CCN(C(=O)c3cccc(F)c3)CC2)s1 |
| 1170 | CCOc1ccc(-c2nc(C3CC(=O)N(c4ccc(F)c(Cl)c4)C3)no2)cc1 (configuration not stated) |
| 548 | Cc1cc(Nc2ccc(NC(=O)Cn3cnc4ccccc43)cc2)nc(N2CCCC2)n1 |
| 629 | COc1cc(N)c(Cl)cc1C(=O)OCCN1CCCCC1 |
| 846 | CCOc1ccccc1NC(=O)N1CCC([C@@H]2[C@H](OC)C(=O)N2C(C)C)CC1 |
| 836 | Cc1cc2nn(CC(=O)Nc3ccc(F)c(Cl)c3)c(=O)n2c(N2CCCC2)n1 |
| 982 | Cc1cc(-c2nnc(C3CCC3)o2)c(C)n1CC(=O)Nc1ccc(Br)cc1F |
| 497 | CCn1nc(N2CCCC(N)C2)ccc1=O (configuration not stated) |
| 972 | CCC(c1cccs1)N1C(=O)[C@H]2CN(S(=O)(=O)c3cccc(F)c3)C[C@H]2C1=O (some centres not stated) |
| 650 | CCC(C)NC(=O)NCCn1c(-c2ccc(C)cc2)nc2cccnc21 (configuration not stated) |
| 533 | Cc1ncsc1CN1CCCC(n2c(C)cnc2-c2ccncc2)C1 (configuration not stated) |
| 815 | c1cc(N2CCSCC2)ncc1-c1noc(CN2CCSCC2)n1 |
| 747 | O=C(NCCC1=CCCCC1)c1nc(-c2ccnc(N3CCCC3)c2)no1 |
| 833 | COc1ccc(CNC(=O)c2ccc3c(=O)n(-c4cccc(OC)c4)c(N4CCCC4)nc3c2)cc1 |
| 688 | COc1ccc(N2CCN(Cc3nc(-c4ccc(N5CCOCC5)nc4)no3)CC2)cc1 |
| 643 | CN(CC1CCOCC1)C(=O)c1ccsc1 |
| 842 | O=c1n(CCOc2ccccc2)nc2ccc(S(=O)(=O)N3CCCC3)cn12 |
